Test results from patent publication US20090286745A1, “INHIBITION OF ALPHA-SYNUCLEIN AGGREGATION” (Zapaloid Limited, priority 2006, published 2009).
“Also recorded” adds a separate entry of the source.

Molecular target: α-synuclein (Homo sapiens, UniProt P37840)
Test: Kinetic thioflavin T aggregation assay of ASYN in TBS
Type: biochemical
Conditions: Table 4 interactomer peptides, 50 μM ASYN, 100 μM inhibitor, 37 C, 48 hours, sigmoidal fit
Procedure: (§1) Kinetic ThT assays were performed by adding ThT directly to the sample at time=0. A 2.5 mM ThT stock solution was made up in the buffer that was used in the aggregation experiment, filtered through a […] Millex GV filter and diluted to 62.5 μM by adding 5 μl to final sample volume of 200 μl in a 96-well polypropylene plate. The increase in fluorescence over time as a result of amyloid formation was measured in a Biotek Synergy HT plate reader at 37° C. with shaking. Cut off filters were used for exitation at 440/30 nm and emission at 485/20 nm. Readings were every 10 minutes with shaking for 500 seconds before each reading.
Aggregation assays were carried out with 50 μM ASYN and 100 μM inhibitor with 50 mM tris and 150 mM NaCl and 20 μM Thioflavin T. The reaction volume was 200 μL. Each reaction was set up in a 96 well polypropylene plate with ASYN only and buffer only controls. The reactions were incubated at 37 C with shaking for 48 hours and aggregation was monitored by reading thioflavin T fluorescence as described above.
The aggregation inhibition properties of ZP-0154 and ZP-0155 were tested in kinetic ThT assays in TBS as described above.
All peptides were tested for inhibition of ASYN aggregation in TBS as described above and the kinetic traces were fit using Zyentiafit software which fits the data to a Sigmoidal function f(x)=k+A/(1+exp(−b(t−t0))) from which the lag time, rate of aggregation and total change in ThT fluorescence may be calculated.
A kinetic thioflavin T assay to measure aggregation was set up with 50 uM α-synuclein in TBS and a molar ratio of 1:2 of α-synuclein:inhibitor). Reactions were incubated for 48 hours at 37° C. with shaking and thioflavin T fluorescence was measured every 10 minutes. The kinetic traces were fit using Zyentiafit software which fits the data to a Sigmoidal function f(x)=k+A/(1+exp(−b(t−t0))) from which the lag time, rate of aggregation and total change in ThT fluorescence may be calculated.

In order of falling “% decrease in ThT fluorescence” value:
1. Ac-qykvli-NH2 [ZP-0202]  53.5%
2. Ac-rysvli-NH2 [ZP-0212]  51.1%
3. NH3-qykvli-NH2 [ZP-0222]  42.3%
4. NH3-pysvli-NH2 [ZP-0228]  40.8%
5. Ac-hhtlvv-NH2 [ZP-0186]  30.7%
6. NH3-qysvli-NH2 [ZP-0215]  27.6%
7. Ac-ekysvli-NH2 [ZP-0213]  25.6%
8. NH3-qytvli-NH2 [ZP-0221]  24.7%
9. Ac-hhvivt-NH2 [ZP-0170]  24.5%
10. Ac-hhtlva-NH2 [ZP-0181]  22.8%
11. Ac-hhtivv-NH2 [ZP-0175]  21.9%
12. Ac-drysvli-NH2 [ZP-0214]  20.4%
13. Ac-hhvvva-NH2 [ZP-0159]  19.8%
14. Ac-hhtvva-NH2 [ZP-0180]  19.8%
15. NH3-qysvlv-NH2 [ZP-0229]  17.8%
16. Ac-qyspli-NH2 [ZP-0205]  16.6%
17. Ac-hhviva-NH2 [ZP-0158]  15.1%
18. Ac-hhvivy-NH2 [ZP-0171]  13.9%
19. Ac-hhttvy-NH2 [ZP-0194]  11.6%
20. NH3-qysvlt-NH2 [ZP-0230]  10.9%
21. Ac-hhvlva-NH2 [ZP-0160]  8.8%
22. Ac-hhtevy-NH2 [ZP-0193]  8.7%
23. Ac-hhveva-NH2 [ZP-0162]  6.3%
24. Ac-qpsvli-NH2 [ZP-0207]  5.5%
25. Ac-hpviva-NH2 [ZP-0164]  3.7%
26. Ac-qypvli-NH2 [ZP-0206]  3.3%
27. Ac-qysvpi-NH2 [ZP-0204]  1.4%
28. Ac-hhtivk-NH2 [ZP-0179]  0.6%
29. Ac-hhvivv-NH2 [ZP-0169]  −0.5%
30. Ac-hhvivw-NH2 [ZP-0172]  −1.7%
31. Ac-hhvkva-NH2 [ZP-0161]  −5.9%
32. Ac-hhvivp-NH2 [ZP-0168]  −8.6%

In order of rising “% decrease in rate of aggregation” value:
1. Ac-hhtevy-NH2 [ZP-0193]  −15.8%
2. Ac-hhvivv-NH2 [ZP-0169]  −13.3%
3. Ac-qyspli-NH2 [ZP-0205]  −11.9%
4. Ac-qysvpi-NH2 [ZP-0204]  −5.6%
5. Ac-hhvivp-NH2 [ZP-0168]  −5.4%
6. Ac-hpviva-NH2 [ZP-0164]  −2.3%
7. Ac-hhtlva-NH2 [ZP-0181]  −1.2%
8. Ac-hhtivk-NH2 [ZP-0179]  −0.6%
9. Ac-hhvkva-NH2 [ZP-0161]  2.3%
10. Ac-qpsvli-NH2 [ZP-0207]  3.6%
11. Ac-drysvli-NH2 [ZP-0214]  4.8%
12. Ac-hhveva-NH2 [ZP-0162]  6.6%
13. Ac-hhvivw-NH2 [ZP-0172]  6.9%
14. Ac-hhttvy-NH2 [ZP-0194]  7.7%
15. Ac-qypvli-NH2 [ZP-0206]  8.4%
16. Ac-hhvlva-NH2 [ZP-0160]  10.5%
17. Ac-ekysvli-NH2 [ZP-0213]  12.9%
18. Ac-hhvivy-NH2 [ZP-0171]  13.2%
19. NH3-qysvlt-NH2 [ZP-0230]  15.9%
20. Ac-hhtivv-NH2 [ZP-0175]  16.8%
21. NH3-qysvli-NH2 [ZP-0215]  17.5%
22. Ac-hhviva-NH2 [ZP-0158]  18.4%
23. Ac-hhtvva-NH2 [ZP-0180]  18.4%
24. Ac-hhvvva-NH2 [ZP-0159]  18.6%
25. NH3-qytvli-NH2 [ZP-0221]  22.8%
26. NH3-qysvlv-NH2 [ZP-0229]  24.3%
27. Ac-hhvivt-NH2 [ZP-0170]  29.3%
28. Ac-hhtlvv-NH2 [ZP-0186]  29.7%
29. NH3-qykvli-NH2 [ZP-0222]  34.3%
30. Ac-rysvli-NH2 [ZP-0212]  44.9%
31. NH3-pysvli-NH2 [ZP-0228]  46.2%
32. Ac-qykvli-NH2 [ZP-0202]  54.5%

In order of falling “% increase in Lag phase” value:
1. Ac-hhtivv-NH2 [ZP-0175]  89.7%
2. Ac-hhvivy-NH2 [ZP-0171]  43.6%
3. Ac-hpviva-NH2 [ZP-0164]  43.0%
4. Ac-hhttvy-NH2 [ZP-0194]  38.8%
5. NH3-pysvli-NH2 [ZP-0228]  38.2%
6. Ac-hhvvva-NH2 [ZP-0159]  36.6%
7. Ac-hhvlva-NH2 [ZP-0160]  36.5%
8. NH3-qysvlv-NH2 [ZP-0229]  33.5%
9. Ac-hhveva-NH2 [ZP-0162]  33.4%
10. Ac-hhviva-NH2 [ZP-0158]  32.5%
11. NH3-qysvlt-NH2 [ZP-0230]  32.4%
12. Ac-hhtevy-NH2 [ZP-0193]  31.4%
13. Ac-qyspli-NH2 [ZP-0205]  30.6%
14. Ac-hhtivk-NH2 [ZP-0179]  30.4%
15. Ac-hhtvva-NH2 [ZP-0180]  30.3%
16. Ac-hhvivp-NH2 [ZP-0168]  29.8%
17. Ac-qpsvli-NH2 [ZP-0207]  29.7%
18. Ac-ekysvli-NH2 [ZP-0213]  29.4%
19. Ac-hhtlva-NH2 [ZP-0181]  29.4%
20. Ac-hhvivt-NH2 [ZP-0170]  29.4%
21. Ac-hhvivw-NH2 [ZP-0172]  28.1%
22. Ac-hhvivv-NH2 [ZP-0169]  26.1%
23. Ac-qypvli-NH2 [ZP-0206]  25.9%
24. Ac-qysvpi-NH2 [ZP-0204]  23.6%
25. Ac-hhvkva-NH2 [ZP-0161]  19.7%
26. Ac-hhtlvv-NH2 [ZP-0186]  16.1%
27. NH3-qykvli-NH2 [ZP-0222]  7.7%
28. NH3-qysvli-NH2 [ZP-0215]  3.1%
29. Ac-drysvli-NH2 [ZP-0214]  −12.6%
30. Ac-rysvli-NH2 [ZP-0212]  −14.4%
31. NH3-qytvli-NH2 [ZP-0221]  −22.4%
32. Ac-qykvli-NH2 [ZP-0202]  −28.8%

Same assay, conditions: Table 5 structure stabilising peptides, 50 uM α-synuclein, 1:2 α-synuclein:inhibitor, 48 hours, 37° C., relative to α-synuclein only

In order of rising “% decrease in ThT fluorescence” value:
1. Ac-kgegk-NH2 [ZP-0231]  4.3%
2. Ac-egkgegk-NH2 [ZP-0241]  6.1%
3. Ac-rgdgd-NH2 [ZP-0247]  12.2%
4. Ac-rdr-NH2 [ZP-0240]  18.5%

In order of rising “% decrease in rate of aggregation” value:
1. Ac-rdr-NH2 [ZP-0240]  −0.6%
2. Ac-kgegk-NH2 [ZP-0231]  2.7%
3. Ac-rgdgd-NH2 [ZP-0247]  6.7%
4. Ac-egkgegk-NH2 [ZP-0241]  10.9%

In order of rising “% increase in Lag phase” value:
1. Ac-rgdgd-NH2 [ZP-0247]  10.7%
2. Ac-kgegk-NH2 [ZP-0231]  11.2%
3. Ac-egkgegk-NH2 [ZP-0241]  16.6%
4. Ac-rdr-NH2 [ZP-0240]  23.4%

Same assay, conditions: structure stabilising peptides, 48 hours

For Ac-rdr-NH2 [ZP-0240], the “endpoint thioflavin T fluorescence (in words)” value was “significant decrease”.

Same assay, conditions: timeframe of the assay 48 h, 50 μM ASYN, 100 μM inhibitor

NMP-NMP-NMP-NMP-kvfgtaa-NH2 [ZP-0154] was tested, and the “increase in ThT signal compared to ASYN only” value was “No significant increase”.
In the case of NMP-NMP-NMP-kvfgtaa-NH2 [ZP-0155], the “increase in ThT signal compared to ASYN only” value was “No significant increase”.

Molecular target: T1, ASYN (Homo sapiens, UniProt P37840)
Test: Kinetic ThT aggregation assay in PBS pH 7.4
Type: biochemical
Conditions: FIG. 13; PBS; asyn:inhibitor 1:2
Procedure: The molar ratio of asyn:inhibitor is 1:2. For both, ASYN aggregation inhibition is observed as an increased lag time along with decreased endpoint ThT fluorescence.
as §1
For compounds ZP-0089 to ZP-0094, a kinetic experiment was performed to test the inhibition properties in PBS pH 7.4 as described above. Samples were assayed in triplicate and each sample contained 50 μl of 200 μM ASYN and 50 μl of 400 μM inhibitor was added to 100 μl PBS in a well and mixed to yield a 200 μl sample volume containing 50 μM ASYN and 100 μM inhibitor. Control wells contained either buffer only or ASYN only.

For L-DOPA-sgvylvg-NH2 [ZP-0089], the “endpoint ThT fluorescence” value was “decreased”.
With L-DOPA-gpvntvq-NH2 [ZP-0090] the “endpoint ThT fluorescence” value was “decreased”.

With L-DOPA-sgvylvg-NH2 [ZP-0089] the “lag phase / lag time” value was “large increase; also recorded: increased”.
L-DOPA-gpvntvq-NH2 [ZP-0090] was tested, and the “lag phase / lag time” value was “increased”.

In the case of L-DOPA-sgvylvg-NH2 [ZP-0089], the “rate of amyloid formation” value was “decreased”.
In the case of L-DOPA-gpvntvq-NH2 [ZP-0090], the “rate of amyloid formation” value was “decreased”.

Same assay, conditions: endpoint; legend prints Tris-Cl pH 7.4 at 37° C. with 100 mg/ml PEG 3350

In the case of L-DOPA-sgvylvg-NH2 [ZP-0089], the “ThT signal compared to ASYN (FIG. 12)” value was “significantly decreased”.
For L-DOPA-gpvntvq-NH2 [ZP-0090], the “ThT signal compared to ASYN (FIG. 12)” value was “significantly decreased”.

Molecular target: T1, ASYN
Test: Kinetic ThT aggregation assay in 25 mM Tris-Cl pH 7.4 with 100 mg/ml PEG 3350
Type: biochemical
Conditions: Tris-Cl pH 7.4; 48 hours; average over the named inhibitors
Procedure: as §1
For compounds ZP-0089 to ZP-0094, a kinetic ThT experiment was performed in 25 mM Tris-Cl at 37° C. to test the inhibition properties of ZP-0089 to ZP-0094 in Tris-Cl pH 7.4. Each 200 μl sample on the 96 well-plate contained 50 μM ASYN, 100 μM inhibitor and 100 mg/ml PEG along with buffer only and ASYN only controls. Samples were measured in triplicate. ThT fluorescence over time was monitored for 48 hours.

In order of falling “decrease in the endpoint ThT reading” value:
1. Ac-sgvylvg-COOH [ZP-0091]  18±2%
2. NH2-sgvylvg-COOH [ZP-0092]  18±2%
3. NH2-sgvylvg-NH2 [ZP-0094]  18±2%

Same assay, conditions: both buffer conditions (Tris-Cl pH 7.4 and PBS); 50 μM ASYN, 100 μM inhibitor

In the case of L-DOPA-sgvylvg-NH2 [ZP-0089], the “inhibition compared to ASYN alone” value was > 60%.
With L-DOPA-gpvntvq-NH2 [ZP-0090] the “inhibition compared to ASYN alone” value was > 30%.

Same assay, conditions: endpoint; Tris-Cl pH 7.4 at 37° C. with 100 mg/ml PEG 3350; 50 μM ASYN, 100 μM inhibitor

With L-DOPA-sgvylvg-NH2 [ZP-0089] the “ThT signal compared to ASYN (FIG. 11)” value was “significantly decreased”.
In the case of L-DOPA-gpvntvq-NH2 [ZP-0090], the “ThT signal compared to ASYN (FIG. 11)” value was “significantly decreased”.
